Experimental data as given in the supplement of paper PMC7840683.
Counter-ions that a name gives are not always drawn.

System: HepaRG
Experiment: LDH release cytotoxicity, % of total lysis control; higher = more cytotoxic
Conditions: 48 h
Procedure, shortened: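 Percent cytotoxicity was scaled between on-plate vehicle and total lysis controls, then averaged over duplicate wells. The cells were single-lot HepaRG on collagen I-coated 96-well plates, exposed for 48 h to eight-point half-log test chemical series topping at 100 µM in serum-free induction medium with 0.5% DMSO. Total lysis wells got 0.1% Triton X, and LDH in 50 µL spent medium was read as resorufin fluorescence (CytoTox-ONE, Tecan Safire).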

Nc1c(Cl)c(Cl)nc(C(=O)O)c1Cl [Picloram]
Conditions | LDH release cytotoxicity [%]
0.031623 µM | -0.672
0.1 µM | -3.68
0.316228 µM | -3.74
1 µM | -3.09
3.16228 µM | -2.76
10 µM | -2.73
31.6228 µM | -2.11
100 µM | 0.666

COC(=O)c1c(Cl)c(Cl)c(C(=O)OC)c(Cl)c1Cl [Chlorthal-dimethyl]
Conditions | LDH release cytotoxicity [%]
0.03162 µM | -0.87
0.1 µM | -0.884
0.3162278 µM | -1.01
1 µM | -0.618
3.16228 µM | -0.53
10 µM | 0.0929
31.6228 µM | -0.208
100 µM | 1.01

CC(Cl)(Cl)C(=O)O [Dalapon]
Conditions | LDH release cytotoxicity [%]
0.03162 µM | -1.01
0.1 µM | -0.953
0.3162278 µM | -0.84
1 µM | -0.409
3.16228 µM | -0.505
10 µM | 0.644
31.6228 µM | 1.01
100 µM | 0.962

COC(=O)CCCC(=O)OC [Dimethyl glutarate]
Conditions | LDH release cytotoxicity [%]
0.03162 µM | -0.9
0.1 µM | -1.35
0.3162278 µM | -1.16
1 µM | -1.42
3.16228 µM | -1.03
10 µM | -1.13
31.6228 µM | -1.36
100 µM | 3.2

CCOC(=O)C(C)OC(=O)c1cc(Oc2ccc(C(F)(F)F)cc2Cl)ccc1[N+](=O)[O-] (configuration not stated) [Lactofen]
Conditions | LDH release cytotoxicity [%]
0.03162 µM | -1.17
0.1 µM | -0.64
0.3162278 µM | -0.974
1 µM | -1.12
3.16228 µM | -0.601
10 µM | -0.515
31.6228 µM | -0.447
100 µM | 0.298

CCCC(=NOCC)C1C(=O)CC(CC(C)SCC)CC1=O (configuration not stated) [Sethoxydim]
Conditions | LDH release cytotoxicity [%]
0.0317809 µM | -1.15
0.1005 µM | -1.26
0.317809 µM | -1.36
1.005 µM | -1.93
3.17809 µM | -1.21
10.05 µM | -0.579
31.7809 µM | -0.893
100.5 µM | 0.566

N#Cc1ccc(N(CC(N)=O)CC(F)(F)F)cc1C(F)(F)F
Conditions | LDH release cytotoxicity [%]
0.03162 µM | -0.784
0.1 µM | -0.777
0.3162278 µM | -1.03
1 µM | -1.38
3.16228 µM | -0.891
10 µM | 0.346
31.6228 µM | -0.599
100 µM | -0.34

Cc1nccn1-c1ccc(Sc2cccc(C3(C(N)=O)CCOCC3)c2)cc1
Conditions | LDH release cytotoxicity [%]
0.03162 µM | -2.79
0.1 µM | -3.28
0.3162278 µM | -2.87
1 µM | -3.4
3.16228 µM | -2.44
10 µM | 7.65
31.6228 µM | 31.9
100 µM | 42.52

O=C(O)c1ccc2c(c1)nc(C(=O)NC1CCN(C3CC3)CC1)n2Cc1cc(-c2ccc(Cl)s2)on1 [AVE3247]
Conditions | LDH release cytotoxicity [%]
0.0075895 µM | -0.875
0.024 µM | -2.04
0.0758947 µM | -2.37
0.24 µM | -2.63
0.758947 µM | -2.23
2.4 µM | -1.94
7.58947 µM | -1.68
24 µM | -0.941

Cc1cc(C)cc(C)c1 [1,3,5-Trimethylbenzene]
Conditions | LDH release cytotoxicity [%]
0.03162 µM | -1.84
0.1 µM | -1.84
0.3162278 µM | -2.21
1 µM | -2.65
3.16228 µM | -2.52
10 µM | -1.42
31.6228 µM | -0.727
100 µM | 1.41

CN=C1C=NN(c2cccc(C(F)(F)F)c2)C(=O)C1Cl (configuration not stated) [Norflurazon]
Conditions | LDH release cytotoxicity [%]
0.03162 µM | -0.275
0.1 µM | -1.08
0.3162278 µM | -0.0751
1 µM | 0.0859
3.16228 µM | -1.2
10 µM | -0.411
31.6228 µM | 0.0481
100 µM | 1.81

O=C1CCC(C2CCCCC2)CC1 [4-Cyclohexylcyclohexanone]
Conditions | LDH release cytotoxicity [%]
0.03162 µM | -0.737
0.1 µM | -0.435
0.3162278 µM | -0.827
1 µM | -0.822
3.16228 µM | -0.588
10 µM | 0.479
31.6228 µM | 0.205
100 µM | 0.739

CN(Cc1cnc2nc(N)nc(N)c2n1)c1ccc(C(=O)NC(CCC(=O)O)C(=O)O)cc1 (configuration not stated) [Methotrexate]
Conditions | LDH release cytotoxicity [%]
0.03162 µM | -2.75
0.1 µM | -1.02
0.3162278 µM | 0.713
1 µM | 0.595
3.16228 µM | 2.21
10 µM | 1.79
31.6228 µM | 3.1
100 µM | 3.39

CC(C=CC1=C(C)CCCC1(C)C)=CC=CC(C)=CC(=O)O [all-trans-Retinoic acid]
Conditions | LDH release cytotoxicity [%]
0.03162 µM | -2.15
0.1 µM | -2.16
0.3162278 µM | -1.95
1 µM | -2.25
3.16228 µM | -2.56
10 µM | -1.87
31.6228 µM | -1.86
100 µM | 2.13

CCC(CC)Nc1c([N+](=O)[O-])cc(C)c(C)c1[N+](=O)[O-] [Pendimethalin]
Conditions | LDH release cytotoxicity [%]
0.03162 µM | -2.12
0.1 µM | -1.6
0.3162278 µM | -0.436
1 µM | 0.269
3.16228 µM | 1.12
10 µM | 0.875
31.6228 µM | -2.25
100 µM | 1.08

COP(=S)(OC)SCN1C(=O)c2ccccc2C1=O [Phosmet]
Conditions | LDH release cytotoxicity [%]
0.03162 µM | -1.04
0.1 µM | -1.58
0.3162278 µM | -0.933
1 µM | -1.6
3.16228 µM | -1.56
10 µM | -1.14
31.6228 µM | -1.65
100 µM | 0.331

CCN(Cc1c(F)cccc1Cl)c1c([N+](=O)[O-])cc(C(F)(F)F)cc1[N+](=O)[O-] [Flumetralin]
Conditions | LDH release cytotoxicity [%]
0.03162 µM | -0.56
0.1 µM | -0.903
0.3162278 µM | -1.29
1 µM | -1.01
3.16228 µM | -0.0868
10 µM | -0.582
31.6228 µM | -0.2
100 µM | 5.506

O=C(O)c1cccnc1 [Nicotinic acid]
Conditions | LDH release cytotoxicity [%]
0.0327296 µM | -1.39
0.1035 µM | -1.35
0.327296 µM | -1.95
1.035 µM | -1.67
3.27296 µM | -1.83
10.35 µM | -0.596
32.729574 µM | -0.819
103.5 µM | 0.214

CN1C(=O)N(c2ccccc2Br)Cc2cnc(Nc3ccc4c(c3)OCC(CO)O4)nc21 (configuration not stated)
Conditions | LDH release cytotoxicity [%]
0.03162 µM | 0.454
0.1 µM | -0.735
0.3162278 µM | -1.07
1 µM | -1.37
3.16228 µM | -0.0336
10 µM | 0.443
31.6228 µM | 8.29
100 µM | 63.4

CC(c1ccc(O)cc1)(c1ccc(O)cc1)c1ccc(O)cc1 [4,4',4''-Ethane-1,1,1-triyltriphenol]
Conditions | LDH release cytotoxicity [%]
0.03162 µM | -1.89
0.1 µM | -1.24
0.3162278 µM | -1.7
1 µM | -1.8
3.16228 µM | -0.727
10 µM | -1.47
31.6228 µM | -1.43
100 µM | -0.486

CCCCOCCO [2-Butoxyethanol]
Conditions | LDH release cytotoxicity [%]
0.03162 µM | -2.12
0.1 µM | -0.886
0.3162278 µM | -1.1
1 µM | -2.21
3.16228 µM | -1.06
10 µM | -0.332
31.6228 µM | -0.824
100 µM | 1.02

CC[C@H](C)[C@@H](C(=O)O)n1sc2ccccc2c1=O
Conditions | LDH release cytotoxicity [%]
0.03162 µM | -0.834
0.1 µM | -1.623
0.3162278 µM | -0.553
1 µM | -1.34
3.16228 µM | -1.12
10 µM | -0.759
31.6228 µM | -1.34
100 µM | 0.0312

CC1(C)C(=O)NC(=O)N1CO [1-(Hydroxymethyl)-5,5-dimethylhydantoin]
Conditions | LDH release cytotoxicity [%]
0.03162 µM | -1.56
0.1 µM | -1.1
0.3162278 µM | -1.77
1 µM | -1.77
3.16228 µM | -1.55
10 µM | -1.08
31.6228 µM | -0.999
100 µM | 0.312

Clc1cc(Cl)c(Cl)cc1Cl [1,2,4,5-Tetrachlorobenzene]
Conditions | LDH release cytotoxicity [%]
0.03162 µM | -1.15
0.1 µM | -1.29
0.3162278 µM | -0.238
1 µM | -1.08
3.16228 µM | -0.932
10 µM | -0.175
31.6228 µM | -0.116
100 µM | 1.14

O=NN(c1ccccc1)c1ccccc1 [N-Nitrosodiphenylamine]
Conditions | LDH release cytotoxicity [%]
0.03162 µM | -1.74
0.1 µM | -0.497
0.3162278 µM | -1.57
1 µM | -1.63
3.16228 µM | -0.54
10 µM | -0.535
31.6228 µM | 1.3
100 µM | 15.9

CCCCCCCCCCCCOS(=O)(=O)O [Sodium dodecyl sulfate]
Conditions | LDH release cytotoxicity [%]
0.03162 µM | -0.308
0.1 µM | -0.693
0.3162278 µM | -1.14
1 µM | -0.62
3.16228 µM | -1.89
10 µM | -1.05
31.6228 µM | 0.0441
100 µM | 10.1

Cc1nn(C)c(Oc2ccccc2)c1C=NOCc1ccc(C(=O)OC(C)(C)C)cc1 [Fenpyroximate (Z,E)]
Conditions | LDH release cytotoxicity [%]
0.03162 µM | -1.39
0.1 µM | -1.596
0.3162278 µM | -2.4
1 µM | -2.65
3.16228 µM | 11
10 µM | 17.19
31.6228 µM | 20.7
100 µM | 30.9

CCCCOCCOCCOCc1cc2c(cc1CCC)OCO2 [Piperonyl butoxide]
Conditions | LDH release cytotoxicity [%]
0.031939 µM | -0.462
0.101 µM | -2.71
0.31939 µM | -2.69
1.01 µM | -3.07
3.1939 µM | -2.38
10.1 µM | -1.93
31.939 µM | -0.729
101 µM | 4.54

CN(CC(CC[N+]12CCC(C3CCCCC3)(CC1)CC2)c1ccc(Cl)c(Cl)c1)C(=O)c1cc(C(F)(F)F)cc(C(F)(F)F)c1 (configuration not stated)
Conditions | LDH release cytotoxicity [%]
0.03162 µM | -0.117
0.1 µM | -0.956
0.3162278 µM | -1.24
1 µM | -1.39
3.16228 µM | -1.45
10 µM | 1.28
31.6228 µM | 57.3
100 µM | 84.4

COCC(C)OCC(C)O (configuration not stated) [Dipropylene glycol monomethyl ether]
Conditions | LDH release cytotoxicity [%]
0.03162 µM | -1.67
0.1 µM | -1.92
0.3162278 µM | -1.46
1 µM | -1.8
3.16228 µM | -1.39
10 µM | -0.852
31.6228 µM | 0.852
100 µM | 0.163

CCCCCCCCO [1-Octanol]
Conditions | LDH release cytotoxicity [%]
0.03162 µM | -0.769
0.1 µM | -1.52
0.3162278 µM | -0.614
1 µM | -1.76
3.16228 µM | -2.15
10 µM | -1.49
31.6228 µM | 1.06
100 µM | 2.86

C1=Cc2cccc3cccc1c23 [Acenaphthylene]
Conditions | LDH release cytotoxicity [%]
0.031623 µM | -0.662
0.1 µM | -2.98
0.316228 µM | -2.7
1 µM | -2.28
3.16228 µM | -2.7
10 µM | -2.757
31.6228 µM | -1.56
100 µM | 1

FC(F)(F)C(F)(F)C(F)(F)C(F)(F)C(F)(F)C(F)(F)CCI [1H,1H,2H,2H-Perfluorooctyl iodide]
Conditions | LDH release cytotoxicity [%]
0.03162 µM | -2.1
0.1 µM | -1.68
0.3162278 µM | -1.96
1 µM | -2.44
3.16228 µM | -1.64
10 µM | -1.16
31.6228 µM | -0.32
100 µM | 1

CC(C)(c1ccccc1)c1ccc(O)cc1 [4-Cumylphenol]
Conditions | LDH release cytotoxicity [%]
0.03162 µM | -1.06
0.1 µM | 0.26
0.3162278 µM | -1.3
1 µM | -2.27
3.16228 µM | -0.891
10 µM | -0.313
31.6228 µM | 2.91
100 µM | 111
